Columns and labels:
[1] = target: T1, DPP4 (dipeptidyl peptidase 4) (Homo sapiens, UniProt P27487); experiment: Drug degradation assessed as recombinant human DPP4-mediated cleavage by measuring compound remaining after 12 hrs by RP-HPLC analysis; type: ADME; details: read-out: Stability
[2] = target: T1, DPP4 (dipeptidyl peptidase 4); experiment: Half life of compound assessed as recombinant human DPP4-mediated cleavage by RP-HPLC analysis; type: ADME
[3] = target: T1, DPP4 (dipeptidyl peptidase 4); experiment: Drug degradation assessed as recombinant human DPP4-mediated cleavage by measuring compound remaining after 96 hrs by RP-HPLC analysis; type: ADME; details: read-out: Stability
[4] = target: T1, DPP4 (dipeptidyl peptidase 4); experiment: Drug degradation assessed as recombinant human DPP4-mediated cleavage by measuring compound remaining after 24 hrs by RP-HPLC analysis; type: ADME; details: read-out: Stability
[5] = Retention time of compound over 30 mins by HPLC analysis; type: physicochemical; details: 0.5 h
[6] = target: T1, DPP4 (dipeptidyl peptidase 4); experiment: Drug degradation assessed as recombinant human DPP4-mediated cleavage by measuring compound remaining after 72 hrs by RP-HPLC analysis; type: ADME; details: read-out: Stability
[7] = target: T1, DPP4 (dipeptidyl peptidase 4); experiment: Drug degradation assessed as recombinant human DPP4-mediated cleavage by measuring compound remaining after 48 hrs by RP-HPLC analysis; type: ADME; details: read-out: Stability
[8] = target: T1, DPP4 (dipeptidyl peptidase 4); experiment: Drug degradation assessed as recombinant human DPP4-mediated cleavage by measuring compound remaining after 1 hr by RP-HPLC analysis; type: ADME; details: read-out: Stability
[9] = target: T1, DPP4 (dipeptidyl peptidase 4); experiment: Drug degradation assessed as recombinant human DPP4-mediated cleavage by measuring compound remaining after 8 hrs by RP-HPLC analysis; type: ADME; details: read-out: Stability
[10] = target: T1, DPP4 (dipeptidyl peptidase 4); experiment: Drug degradation assessed as recombinant human DPP4-mediated cleavage by measuring compound remaining after 2 hrs by RP-HPLC analysis; type: ADME; details: read-out: Stability
[11] = target: T1, DPP4 (dipeptidyl peptidase 4); experiment: Drug degradation assessed as recombinant human DPP4-mediated cleavage by measuring compound remaining after 4 hrs by RP-HPLC analysis; type: ADME; details: read-out: Stability
[12] = target: Glucagon-like peptide 1 receptor (Homo sapiens, UniProt P43220); experiment: Activation of human GLP1R expressed in HEK293 cells preincubated for 30 mins followed by addition of cAMP-d2 conjugate/cryptate conjugate incubated for 60 mins by fluorescence analysis; type: functional, cell-based
Mus musculus [13] = experiment: Reduction in blood glucose in Kunming mouse assessed as blood glucose level at 25 nmol/kg, ip at administered 0 mins followed by first glucose challenge at 40 mins followed by second glucose challenge at 310 mins and measured at 385 mins by glucose tolerance test (reference value: 4.9 to 6.3 mmol/L); type: functional
Mus musculus [14] = experiment: Reduction in blood glucose in Kunming mouse assessed as blood glucose level at 25 nmol/kg, ip at administered 0 mins followed by first glucose challenge at 40 mins followed by second glucose challenge at 310 mins and measured at 40 mins by glucose tolerance test (reference value: 4.9 to 6.3 mmol/L); type: functional
Mus musculus [15] = experiment: Reduction in blood glucose in Kunming mouse assessed as blood glucose level at 25 nmol/kg, ip at administered 0 mins followed by first glucose challenge at 40 mins followed by second glucose challenge at 310 mins and measured at 430 mins by glucose tolerance test (reference value: 4.9 to 6.3 mmol/L); type: functional
Mus musculus [16] = experiment: Reduction in blood glucose in Kunming mouse assessed as blood glucose level at 25 nmol/kg, ip at administered 0 mins followed by first glucose challenge at 40 mins followed by second glucose challenge at 310 mins and measured at 310 mins by glucose tolerance test (reference value: 4.9 to 6.3 mmol/L); type: functional
Mus musculus [17] = experiment: Reduction in blood glucose in Kunming mouse assessed as blood glucose level at 25 nmol/kg, ip at administered 0 mins followed by first glucose challenge at 40 mins followed by second glucose challenge at 310 mins and measured at 80 mins by glucose tolerance test (reference value: 4.9 to 6.3 mmol/L); type: functional
Mus musculus [18] = experiment: Reduction in blood glucose in Kunming mouse assessed as blood glucose level at 25 nmol/kg, ip at administered 0 mins followed by first glucose challenge at 40 mins followed by second glucose challenge at 310 mins and measured at 350 mins by glucose tolerance test (reference value: 4.9 to 6.3 mmol/L); type: functional
Mus musculus [19] = experiment: Reduction in blood glucose in Kunming mouse assessed as blood glucose level at 25 nmol/kg, ip at administered 0 mins followed by first glucose challenge at 40 mins followed by second glucose challenge at 310 mins and measured at 115 mins by glucose tolerance test (reference value: 4.9 to 6.3 mmol/L); type: functional
Mus musculus [20] = experiment: Reduction in blood glucose in Kunming mouse assessed as blood glucose level at 25 nmol/kg, ip at administered 0 mins followed by first glucose challenge at 40 mins followed by second glucose challenge at 310 mins and measured at 55 mins by glucose tolerance test (reference value: 4.9 to 6.3 mmol/L); type: functional
Mus musculus [21] = experiment: Reduction in blood glucose in Kunming mouse assessed as blood glucose level at 25 nmol/kg, ip at administered 0 mins followed by first glucose challenge at 40 mins followed by second glucose challenge at 310 mins and measured at 160 mins by glucose tolerance test (reference value: 4.9 to 6.3 mmol/L); type: functional
Mus musculus [22] = experiment: Reduction in blood glucose in Kunming mouse assessed as blood glucose level at 25 nmol/kg, ip at administered 0 mins followed by first glucose challenge at 40 mins followed by second glucose challenge at 310 mins and measured at 325 mins by glucose tolerance test (reference value: 4.9 to 6.3 mmol/L); type: functional

T1 sequence (P27487 whole entry): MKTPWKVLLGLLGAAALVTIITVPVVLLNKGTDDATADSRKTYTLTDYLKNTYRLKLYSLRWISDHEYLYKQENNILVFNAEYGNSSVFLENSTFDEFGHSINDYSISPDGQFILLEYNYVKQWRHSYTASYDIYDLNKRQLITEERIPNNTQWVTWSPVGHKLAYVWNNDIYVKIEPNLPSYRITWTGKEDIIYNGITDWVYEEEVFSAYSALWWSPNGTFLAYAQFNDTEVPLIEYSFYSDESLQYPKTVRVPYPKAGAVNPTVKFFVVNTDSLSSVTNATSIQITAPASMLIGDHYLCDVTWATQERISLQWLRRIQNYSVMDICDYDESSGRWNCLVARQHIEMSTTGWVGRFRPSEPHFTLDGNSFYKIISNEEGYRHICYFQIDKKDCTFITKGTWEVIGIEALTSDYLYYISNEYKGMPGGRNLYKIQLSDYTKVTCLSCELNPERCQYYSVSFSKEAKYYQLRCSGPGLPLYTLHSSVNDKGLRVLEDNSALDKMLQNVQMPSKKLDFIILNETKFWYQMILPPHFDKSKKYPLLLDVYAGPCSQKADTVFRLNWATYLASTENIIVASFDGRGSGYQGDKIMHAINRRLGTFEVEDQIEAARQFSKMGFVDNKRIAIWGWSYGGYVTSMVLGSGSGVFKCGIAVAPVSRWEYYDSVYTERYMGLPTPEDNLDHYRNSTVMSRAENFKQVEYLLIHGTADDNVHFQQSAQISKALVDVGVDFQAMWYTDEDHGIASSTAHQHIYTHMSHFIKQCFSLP
Glucagon-like peptide 1 receptor, sequence (P43220 whole entry): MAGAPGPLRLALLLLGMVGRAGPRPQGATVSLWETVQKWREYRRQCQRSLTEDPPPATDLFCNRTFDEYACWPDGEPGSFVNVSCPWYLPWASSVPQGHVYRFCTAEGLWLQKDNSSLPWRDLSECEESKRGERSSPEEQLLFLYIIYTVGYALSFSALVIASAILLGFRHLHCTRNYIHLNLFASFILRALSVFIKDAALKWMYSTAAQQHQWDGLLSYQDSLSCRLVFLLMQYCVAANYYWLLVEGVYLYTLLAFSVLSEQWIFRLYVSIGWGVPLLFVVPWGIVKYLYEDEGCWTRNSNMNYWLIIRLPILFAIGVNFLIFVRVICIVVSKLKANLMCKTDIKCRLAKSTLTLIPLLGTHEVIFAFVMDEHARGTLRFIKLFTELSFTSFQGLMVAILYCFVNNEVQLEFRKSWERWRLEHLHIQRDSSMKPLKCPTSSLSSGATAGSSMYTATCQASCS

remaining at 12 h [1] [%] | half-life [2] [h] | remaining at 96 h [3] [%] | remaining at 24 h [4] [%] | Retention_time [5] [min] | remaining at 72 h [6] [%] | remaining at 48 h [7] [%] | remaining at 1 h [8] [%] | remaining at 8 h [9] [%] | remaining at 2 h [10] [%] | remaining at 4 h [11] [%] | Compound | also measured
82.9 | 96 | 41.7 | 72.7 | 14.669 | 54 | 61.3 |  |  |  |  | CC[C@H](C)[C@H](NC(=O)[C@H](Cc1ccccc1)NC(=O)[C@H](CCC(=O)O)NC(=O)[C@H](CCCCN)NC(=O)[C@H](C)NC(=O)[C@H](C)NC(=O)[C@H](CCC(N)=O)NC(=O)CNC(=O)[C@H](CCC(=O)O)NC(=O)[C@H](CC(C)C)NC(=O)[C@H](Cc1ccc(O)cc1)NC(=O)[C@H](CO)NC(=O)[C@H](CO)NC(=O)[C@@H](NC(=O)[C@H](CC(=O)O)NC(=O)[C@H](CO)NC(=O)[C@@H](NC(=O)[C@H](Cc1ccccc1)NC(=O)[C@@H](NC(=O)CNC(=O)C[C@@H](CCC(=O)O)NC(=O)[C@H](C)NC(=O)[C@@H](N)Cc1cnc[nH]1)[C@@H](C)O)[C@@H](C)O)C(C)C)C(=O)N[C@@H](C)C(=O)N[C@@H](Cc1c[nH]c2ccccc12)C(=O)N[C@@H](CC(C)C)C(=O)N[C@H](C(=O)N[C@@H](CCCCN)C(=O)NCC(=O)N[C@@H](CCCNC(=N)N)C(N)=O)C(C)C | 
7.5 | 2.39 |  |  | 14.566 |  |  | 74.8 | 14.9 | 57.5 | 34.8 | CC[C@H](C)[C@H](NC(=O)[C@H](Cc1ccccc1)NC(=O)[C@H](CCC(=O)O)NC(=O)[C@H](CCCCN)NC(=O)[C@H](C)NC(=O)[C@H](C)NC(=O)[C@H](CCC(N)=O)NC(=O)CNC(=O)[C@H](CCC(=O)O)NC(=O)[C@H](CC(C)C)NC(=O)[C@H](Cc1ccc(O)cc1)NC(=O)[C@H](CO)NC(=O)[C@H](CO)NC(=O)[C@@H](NC(=O)[C@H](CC(=O)O)NC(=O)[C@H](CO)NC(=O)[C@@H](NC(=O)[C@H](Cc1ccccc1)NC(=O)[C@@H](NC(=O)CCNC(=O)[C@H](CCC(=O)O)NC(=O)[C@H](C)NC(=O)[C@@H](N)Cc1cnc[nH]1)[C@@H](C)O)[C@@H](C)O)C(C)C)C(=O)N[C@@H](C)C(=O)N[C@@H](Cc1c[nH]c2ccccc12)C(=O)N[C@@H](CC(C)C)C(=O)N[C@H](C(=O)N[C@@H](CCCCN)C(=O)NCC(=O)N[C@@H](CCCNC(=N)N)C(N)=O)C(C)C | EC50 [12]: 0.0636 nM
 |  |  |  |  |  |  |  |  |  |  | CC[C@H](C)[C@H](NC(=O)[C@H](Cc1ccccc1)NC(=O)[C@H](CCC(=O)O)NC(=O)[C@H](CCCCN)NC(=O)[C@H](C)NC(=O)[C@H](C)NC(=O)[C@H](CCC(N)=O)NC(=O)CNC(=O)[C@H](CCC(=O)O)NC(=O)[C@H](CC(C)C)NC(=O)[C@H](Cc1ccc(O)cc1)NC(=O)[C@H](CO)NC(=O)[C@H](CO)NC(=O)[C@@H](NC(=O)[C@H](CC(=O)O)NC(=O)[C@H](CO)NC(=O)[C@@H](NC(=O)[C@H](Cc1ccccc1)NC(=O)[C@@H](NC(=O)CNC(=O)[C@H](CCC(=O)O)NC(=O)C1(NC(=O)[C@@H](N)Cc2cnc[nH]2)CC1)[C@@H](C)O)[C@@H](C)O)C(C)C)C(=O)N[C@@H](C)C(=O)N[C@@H](Cc1c[nH]c2ccccc12)C(=O)N[C@@H](CC(C)C)C(=O)N[C@H](C(=O)N[C@@H](CCCCN)C(=O)NCC(=O)N[C@@H](CCCNC(=N)N)C(N)=O)C(C)C [listing 1 of 2 here] | Activity (Mus musculus [13]): 10.8 mmol/L; Activity (Mus musculus [14]): 7.5 mmol/L; Activity (Mus musculus [15]): 7.1 mmol/L; Activity (Mus musculus [16]): 5.9 mmol/L; Activity (Mus musculus [17]): 17.2 mmol/L; Activity (Mus musculus [18]): 19.8 mmol/L; Activity (Mus musculus [19]): 13.8 mmol/L; Activity (Mus musculus [20]): 12.9 mmol/L; Activity (Mus musculus [21]): 6.5 mmol/L; Activity (Mus musculus [22]): 21.2 mmol/L
100 | > 96 | 100 | 100 | 13.842 | 100 | 100 |  |  |  |  | CC[C@H](C)[C@H](NC(=O)[C@H](Cc1ccccc1)NC(=O)[C@H](CCC(=O)O)NC(=O)[C@H](CCCCN)NC(=O)[C@H](C)NC(=O)[C@H](C)NC(=O)[C@H](CCC(N)=O)NC(=O)CNC(=O)[C@H](CCC(=O)O)NC(=O)[C@H](CC(C)C)NC(=O)[C@H](Cc1ccc(O)cc1)NC(=O)[C@H](CO)NC(=O)[C@H](CO)NC(=O)[C@@H](NC(=O)[C@H](CC(=O)O)NC(=O)[C@H](CO)NC(=O)[C@@H](NC(=O)[C@H](Cc1ccccc1)NC(=O)[C@@H](NC(=O)CNC(=O)[C@H](CCC(=O)O)NC(=O)C1(NC(=O)[C@@H](N)Cc2cnc[nH]2)CC1)[C@@H](C)O)[C@@H](C)O)C(C)C)C(=O)N[C@@H](C)C(=O)N[C@@H](Cc1c[nH]c2ccccc12)C(=O)N[C@@H](CC(C)C)C(=O)N[C@H](C(=O)N[C@@H](CCCCN)C(=O)NCC(=O)N[C@@H](CCCNC(=N)N)C(N)=O)C(C)C [listing 2 of 2 here] | EC50 ([12]; hek293): 0.0284 nM
100 | > 96 | 100 | 100 | 14.536 | 100 | 100 | 100 | 100 | 100 | 100 | CC[C@H](C)[C@H](NC(=O)[C@H](Cc1ccccc1)NC(=O)[C@H](CCC(=O)O)NC(=O)[C@H](CCCCN)NC(=O)[C@H](C)NC(=O)[C@H](C)NC(=O)[C@H](CCC(N)=O)NC(=O)CNC(=O)[C@H](CCC(=O)O)NC(=O)[C@H](CC(C)C)NC(=O)[C@H](Cc1ccc(O)cc1)NC(=O)[C@H](CO)NC(=O)[C@H](CO)NC(=O)[C@@H](NC(=O)[C@H](CC(=O)O)NC(=O)[C@H](CO)NC(=O)[C@@H](NC(=O)[C@H](Cc1ccccc1)NC(=O)[C@@H](NC(=O)CNC(=O)[C@H](CCC(=O)O)NC(=O)C[C@H](C)NC(=O)[C@@H](N)Cc1cnc[nH]1)[C@@H](C)O)[C@@H](C)O)C(C)C)C(=O)N[C@@H](C)C(=O)N[C@@H](Cc1c[nH]c2ccccc12)C(=O)N[C@@H](CC(C)C)C(=O)N[C@H](C(=O)N[C@@H](CCCCN)C(=O)NCC(=O)N[C@@H](CCCNC(=N)N)C(=O)O)C(C)C | 
100 | > 96 | 100 | 100 | 14.005 | 100 | 100 |  |  |  |  | CC[C@H](C)[C@H](NC(=O)[C@H](Cc1ccccc1)NC(=O)[C@H](CCC(=O)O)NC(=O)[C@H](CCCCN)NC(=O)[C@H](C)NC(=O)[C@H](C)NC(=O)[C@H](CCC(N)=O)NC(=O)CNC(=O)[C@H](CCC(=O)O)NC(=O)[C@H](CC(C)C)NC(=O)[C@H](Cc1ccc(O)cc1)NC(=O)[C@H](CO)NC(=O)[C@H](CO)NC(=O)[C@@H](NC(=O)[C@H](CC(=O)O)NC(=O)[C@H](CO)NC(=O)[C@@H](NC(=O)[C@H](Cc1ccccc1)NC(=O)[C@@H](NC(=O)CNC(=O)[C@H](CCC(=O)O)NC(=O)[C@H](C)CNC(=O)[C@@H](N)Cc1cnc[nH]1)[C@@H](C)O)[C@@H](C)O)C(C)C)C(=O)N[C@@H](C)C(=O)N[C@@H](Cc1c[nH]c2ccccc12)C(=O)N[C@@H](CC(C)C)C(=O)N[C@H](C(=O)N[C@@H](CCCCN)C(=O)NCC(=O)N[C@@H](CCCNC(=N)N)C(N)=O)C(C)C | 
